Measurements from patent US20210322508A1, “PEPTIDES AND COMPOSITIONS FOR TARGETED TREATMENT AND IMAGING” (SIGNABLOK, INC., priority 2018, published 2021).

What was measured:
[1] = tolerability in healthy mice (body weight); type: in vivo; settings: healthy C57BL/6 mice, average weights
Protocol: As described herein, healthy C57BL/6 mice were intraperitoneally (i.p.) administered daily for 7 consecutive days with GF9 at indicated doses Mouse body weight (BW) was measured daily.

[2] = Mouse tolerability studies; type: in vivo; settings: female, C57BL/6, mouse, in vivo, ip, 400 mg/kg; free form, healthy mice
Protocol: Naïve, female C57BL/6 mice at 8 to 10 weeks of age (18 to 21 g) from the Jackson Laboratory were used. […] Clinical observations and body weights were made twice daily.
Naïve, female C57BL/6 mice at 8 to 10 weeks of age (18 to 21 g) from the Jackson Laboratory were used. Animals were randomly grouped (5 mice per group) and i.p. injected with 400 mg/kg G-HV21, G-KV21 or G-TE21. Clinical observations and body weights were made twice daily.

[3] = system: LPS-stimulated J774A.1 macrophages (TNF-alpha, IL-6, IL-1beta); assay: In vitro cytokine release by LPS-stimulated macrophages; type: cell-based, mouse; settings: 10 ng/ml after pre-incubation with HDL; LPS 1 μg/ml, 24 h
Protocol: (§1) The BALB/c murine macrophage cell line J774A.1 (ATCC TIB-67) were obtained from the American Type Culture Collection (ATCC, Manassas, Va.). Macrophages were cultured in 48-well plates (Corning, Cambridge, Mass.) for 24 h at 37° C. in the presence of LPS (1 μg/ml, Escherichia coli 055:B5, Sigma) in combination with 10 ng/ml peptides either pre-incubated or not with HDL. Cell-free supernatants were harvested and stored at −20° C. for later cytokine quantification. TNF-alpha, IL-6, and IL-1beta were assayed using commercial ELISA kits (Pierce Biotechnology, Thermo Scientific, Rockford, Ill.) according to the recommendations of the manufacturer. Results were represented as the mean±S.D. of three independent experiments. Statistical significances in in vitro macrophage uptake assay were determined by two-tailed Student's t test.
as §1, with “Macrophages were cultured in 48-well plates (Corning, Cambridge, Mass.) for 24 h at 37° C. in the presence of LPS (1 μg/ml, Escherichia coli 055:B5, Sigma) in combination with 10 ng/ml peptides either pre-incubated or not with HDL.” left out

[4] = system: J774A.1 macrophages; assay: In vitro macrophage endocytosis of fluorescent peptides with or without HDL; type: cell-based, mouse; settings: in the presence or absence of HDL
Protocol: The BALB/c murine macrophage cell line J774A.1 (ATCC TIB-67) were obtained from the American Type Culture Collection (ATCC, Manassas, Va.). The macrophage cells were cultured at 37° C. with 5% CO2 in Dulbecco's modified Eagle's medium (DMEM) (Cellgro, Mediatech Inc, Manassas, Va.) with 2 mM glutamine, 100 U/ml penicillin, 0.1 mg/ml streptomycin, and 10% fetal bovine serum (FBS) (Cellgro, Mediatech Inc, Manassas, Va.) and grown to approximately 90% of confluence in 6-well tissue culture plates (Corning, Tewksbury, Mass.). Cells were incubated for varied time periods from 4 to 24 h at 37° C. with fluorescently labeled peptides (pre-incubated with 1 mg/ml HDL) at a concentration of 4 μM rhodamine B (rho-B). After incubation, cells were washed twice with PBS and lysed using Promega passive lysis buffer (Promega, Madison, Wis.). The rho B fluorescence was measured in the lysates with a 540 nm excitation and a 590 nm emission filters using the Gemini EM fluorescence microplate reader (Molecular Devices, Sunnyvale, Calif.). The protein concentration in the lysates was determined using the Bradford reagent (Bio-Rad, Richmond, Calif.) and the SpectraMax 190 microplate reader (Molecular Devices, Sunnyvale, Calif.).
In one embodiment, after reaching target confluency, cells were incubated for 1 h in medium with or without fucoidan (400 μg/mL), BLT-1 (10 μM) or cytochalasin D (40 μM), Cells were subsequently incubated for 4 h and 22 h at 37° C. in medium containing 2 μM of rho B-labeled peptides G-KV21 and G-HV21 (as calculated for rho B) that were pre-incubated with 1 mg/ml HDL. After incubation, cells were washed twice with PBS and lysed using Promega passive lysis buffer. The rho B fluorescence and protein concentration were measured in the lysates as described above.

[5] = system: mouse lipoproteins
[6] = in vivo; cited from earlier work

Row | Compound | toxicity in healthy mice [1] | MTD [2] [mg/kg] | production of cytokines by LPS-stimulated macrophages [3] | macrophage endocytosis, effect of sulfoxidized methionine residue [4] | behaviour on ultracentrifugation of whole mouse serum [5] | safety in humans [6]
1 | CC(C)C[C@H](NC(=O)[C@H](Cc1ccccc1)NC(=O)CN)C(=O)N[C@@H](CO)C(=O)N[C@@H](CCCCN)C(=O)N[C@@H](CO)C(=O)N[C@@H](CC(C)C)C(=O)N[C@H](C(=O)N[C@@H](Cc1ccccc1)C(=O)N[C@H](C(=O)N[C@@H](CCCCN)C(=O)N1CCC[C@H]1C(=O)N[C@@H](CCC(=O)O)C(=O)N[C@@H](CO)C(=O)N[C@@H](CCC(=O)O)C(=O)N[C@@H](CCCNC(=N)N)C(=O)N[C@@H](CC[S+](C)[O-])C(=O)N1CCC[C@H]1C(=O)N[C@@H](CS)C(=O)N[C@H](C(=O)N[C@@H](CCC(=O)O)C(=O)O)[C@@H](C)O)[C@@H](C)O)C(C)C (stereo partly drawn) [G-TE21, reference compound] | No toxicity was observed | ≥ 400 | does not affect on cytokine release by LPS-stimulated macrophages | does not promote macrophage endocytosis neither in the presence or absence of HDL | sedimentate with serum proteins | –
2 | LQEEDAGEYGCM [LR12] | – | – | – | – | – | safe
